Assay results from US12251366B1, “Sulforaphane-cysteine for wound healing in diabetic subjects” (KUWAIT UNIVERSITY, priority 2024, dated 2025).
Entries after “also recorded” stand apart in the source; their conditions may differ.

Columns and labels:
[1] = test system: endothelial nitric oxide; experiment: Endothelial nitric oxide activity and expression in corpus cavernosum; assay type: in vivo
Excerpt: (§1) Therapeutic rational was considered for SFN-Cys effectiveness in the following pathological conditions: Sarcopenia-SFN-Cys increased muscle weight in diabetic mice, see FIGS. 4A and 4B; Cardiac fibrosis-SFN-Cys inhibits transforming growth factor beta (TGF-β) expression, see FIG. 4C; Erectile dysfunction-SFN-Cys increased endothelial nitric oxide activity and expression in corpus cavernosum.

[2] = test system: IL-6; experiment: Cytokine ELISA, LPS-stimulated peritoneal macrophages (IL-6); assay type: cell-based, mouse; settings: LPS 100 ng/mL 6 hours, pre-treatment 1.5 μM
Excerpt: This was exemplified in the current study by the ability of SFN-CYS to inhibit lipopolysaccharide (LPS)-induced peritoneal macrophages and bone marrow-derived macrophages to produce tumor necrosis factor-α (TNF-α) and interlukin-6 (IL-6). TNF-α and IL-6 are two of the major inflammatory mediators that contribute to the pathogenesis of low-grade inflammation; a phenomenon which is commonly associated with the diabetic state. […] Pre-treatment with SFN-Cys inhibited the expression of LPS-induced TNF-α and IL-6 protein at a therapeutic dose of 1.5 μM (FIGS. 1A and 1B).
Thioglycollate-elicited mouse peritoneal macrophages were prepared from C57BL (8-10 weeks old) and cultured in RPMI 1640 with 10% (v/v) FCS Bone marrow-derived macrophages were generated in RPMI medium containing M-CSF (10 ng/mL) according to previously published procedure. For cytokine ELISA assay, cells were seeded at 5×10^5 in 12-well plates, whereas for mRNA expression, the cells were seeded at […]. LPS and used at a dose of 100 ng/mL. Similarly. SFN-Cys was used at a concentration of 1.5 umol/L.
For cytokine ELISA, supernatants from cultured macrophages were collected in response to treatment with SFN and SFN-Cys for 6 h. The total TNF-α and TL-6 were measured by enzyme-linked immunosorbent assay (ELISA) using kits (R&D system, USA) according to the manufacturer's protocols.

[3] = Pain threshold in diabetic rats (diabetic neuropathy); assay type: in vivo; settings: 5 μmol/rat
Excerpt: as §1

[4] = test system: neuronal, vascular, muscle, cardiac and stem cells; experiment: Protection of cells from oxidative stress and inflammation-induced apoptotic cell death; assay type: cell-based; settings: at certain concentrations
Excerpt: Thus, SNF-Cys may have a therapeutic benefit in the following conditions in addition to impaired wound healing: Sarcopenia, Fat grafting, Psoriasis, Nerve regeneration and diabetic neuropathy, Erectile dysfunction, and Cardiac fibrosis.

[5] = test system: heme oxygenase; experiment: Tissue mRNA expression of heme oxygenase after SFN-Cys diet; assay type: in vivo; settings: heart, kidney, liver and skin; SFN-Cys diet 1.5-2.5 μmol/mouse, 21 days
Procedure: Testing the pharmacodynamic and toxicodynamic properties of SFN-Cys dictated the mixing SFN-Cys with a powdered diet. The estimated dose delivered by this diet was 1.5-2.5 μmol/mouse (n=4). The SFN-Cys diet was stored at 4° C. and the feeders were refilled daily for the duration of the study (21 days). Corresponding animals received food without the drug.
For dietary treatment with SFN-Cys, the SFN-Cys was mixed with a powdered diet (7.5 mg of SFN-Cys per kg of food). The estimated dose delivered by this diet was about 1.0-1.5 mg/kg. The diet was stored at 4° C. and the feeders were refilled daily. Control animals received diet alone. Body weights were recorded twice a week and at the termination of the study, blood was drawn in EDTA-containing tubes, plasma was collected by centrifugation and stored at −80° C. until analysis.
(§2) Total RNA from cells or frozen sponge implants was extracted using the Trizol reagent (Invitrogen), and the RNA integrity was verified by agarose gel electrophoresis. […] The amplified sequences were assessed using the ABI 7500 Prism Sequence Detection system machine. The results were expressed as mRNA levels normalized to 18S or GAPDH in each sample.

[6] = test system: Vimentin-TGF-β-Slug signaling pathway; experiment: Vimentin-TGF-β-Slug signaling in diabetic wound biopsies; assay type: in vivo, rat; settings: semi-chronic administration
Excerpt: Although the molecular mechanism by which SFN-Cyst enhanced wound healing potential was not fully explored in this study, it is possible to involve the Vimentin-TGF-β-Slug signaling pathway. Vimentin is an intermediate filament protein that participates in several cellular processes essential for wound healing, including cell proliferation, adhesion, migration and cytoskeletal rearrangement. Moreover, vimentin also amplifies epithelial-mesenchymal-transition via enhancing TGF-β-Slug signaling. […] A similar reduction in TGF-β-Slug signaling level was also evident in this disease state (FIG. 3D).
Total RNA from cells or frozen sponge implants was extracted using the Trizol reagent (Invitrogen), and the RNA integrity was verified by agarose gel electrophoresis. Approximately 1 μg of RNA was reverse transcribed (Superscript II Reverse Transcriptase Kit, Invitrogen) and amplified using the TaqMan Assay on Demand (Applied Biosystems) in a 25 μL reaction volume containing two unlabeled primers, a 6-carboxyfluorescien-labeled TaqMan MGB probe and the master mix. The amplified sequences were assessed using the ABI 7500 Prism Sequence Detection system machine. The results were expressed as mRNA levels normalized to 18S or GAPDH in each sample.

[7] = test system: heme oxygenase (HO); experiment: mRNA expression of Nrf2 target gene HO in fibroblasts; assay type: cell-based, rat; settings: diabetic fibroblasts, 1.5 μM
Procedure: To better characterize how SFN-Cys impacts cellular antioxidant levels, the ability of SFN-Cys to regulate the transcription factor nuclear factor erythroid 2-related factor 2 (Nrf2) was assessed, which is a master regulator of the antioxidative stress response that induces the expression of antioxidant proteins such as heme oxygenase (HO) and NAD(P)H dehydrogenase (quinine; NQO1) and key enzymes in the glutathione system. In this context, Nrf2 transcriptional activity was first measured using a vector encoding luciferase driven by the NQO1 promoter. […] Administration of SNF-Cyst at the above indicated concentration (1.5 μM, the lowest effective concentration) ameliorated diabetes-induced suppression of the Nrf2 activity and Nrf2-target genes including HO and NQO1 (FIG. 2A-D).
as §2

[8] = test system: full-thickness wounds; experiment: In vivo wound closure assay, excisional wound healing rat model; parameters: species or system GK rats; settings: for mitigation of diabetes-related impairment of wound healing compared with VEGF: animal model of (aged) type 2 diabetes; for wound closure / wound healing: rats, topical 1.5 μmol/wound in Pluronic acid every other day, day-0 through day-7
Procedure: Successful wound healing necessitates a series of tightly coordinated and overlapping processes including inflammation, new tissue formation and remodeling. Fibroblasts, in response to growth factors-released mostly by macrophages, migrate to the site of injury, where they proliferate and lay down the extracellular matrix (ECM). Consequently, this facilitates cell migration and tissue reconstruction. The effect of a therapeutic concentration of SFN-Cys (1.5 μM) was investigated on the proliferation of fibroblasts isolated from the granulation tissue of control and diabetic wounds. Similarly, the effect of SFN-Cys on cell migration in the in vitro wound closure assay was also considered. […] Accordingly, in vivo wound closure properties of SFN-Cys were examined using an excisional wound healing rat model. SFN-Cys containing Pluronic acid was topically applied to the wound at a dose of 1.5 μmol concentration and the wound closure area was digitally photographed and quantified. Digital photographs were obtained on day-0 through day-7 of post wounding. […] In this context, the wound healing time-course was faster in SFN-Cys containing Pluronic acid than the Pluronic acid alone (FIG. 3C). […] VEGF is a well-established enhancer of the proliferative phase of healing.
For wounding experiments, 15-18-month female GK rats were anesthetized with intraperitoneal injection of ketamine/xylazine and full-thickness wounds were made in the mid dorsal skin with 8-mm disposable punches. To evaluate the effect of SFN-Cys on wound closure, the drug was dissolved initially with DMSO and then diluted with a 25% Pluronic acid solution at a dose of 1.5 μmol/wound; applied topically to the wound every other day. The wounds were photographed at 0-, 3- or 7-days post-wounding.

mRNA expression of Nrf2 target gene HO [7]: ameliorated
SMILES: C[S+]([O-])CCCCNC(=S)SCC(N)C(=O)O (centres unmarked) [SFN-Cys, Sulforaphane-Cysteine]
endothelial nitric oxide activity and expression [1]: increased
expression of LPS-induced IL-6 protein [2]: inhibited
pain threshold [3]: elevated
protection from oxidative state and low-grade inflammation-induced apoptotic cell death [4]: protects
mRNA expression of heme oxygenase relative to control [5]: about 3 folds
deficit in Vimentin-TGF-β-Slug signaling [6]: ameliorated
mitigation of diabetes-related impairment of wound healing compared with VEGF [8]: better than vascular endothelial growth factor (VEGF)
mitigation of diabetes-related impairment of wound healing compared with VEGF ([8]; listed as SNF-Cys): more efficacious than vascular endothelial growth factor (VEGF)
wound closure / wound healing [8]: enhanced wound closure; also recorded: ameliorated; also recorded: increases wound healing potential both in control and diabetic subjects
wound closure / wound healing ([8]; listed as SNF-Cys): ameliorated
